{"source": "patent US20250387360A1", "about": "“Methods and Compositions for Treatment of Addiction” (University of Connecticut, priority 2024, published 2025)", "type_in_all_cases": "in vivo, mouse", "key": {"[1]": {"system": "male mice", "assay": "Dosage dependent, short-term sodium valerate in 4-day DID regimen", "conditions": "day 1 to day 4, n=7/group, vs vehicle", "protocol": "Different dosages of sodium valerate ranging from 20 mM to 200 mM were tested in male mice (n=7/group, 6-8 weeks old) using a 4-day DID regimen. Different dosages of sodium valerate were given through drinking water 30 min before the 2-hour drinking exposure at Day 1 and continued to day 4 except the drinking hours.\nA standard 4-day drinking in the dark (DID) model was used to evaluate binge-like ethanol drinking patterns in mice. A 20% v/v ethanol solution was prepared by diluting 190-proof ethyl alcohol (Sigma, MO, U.S.A) with deionized water. During days 1-3, the water bottles were temporarily removed during the dark cycle of the mice, and the mice were provided with a tube containing the 20% v/v ethanol solution for a duration of two hours. On day four, the assessment of binge-like ethanol consumption took place, where the mice were given access to the 20% v/v ethanol solution for a period of four hours. The volume of fluid in the tube (read to the closest 100 μL) was measured immediately upon placement, and at two hours and four hours into the test. Following the completion of the four hours test, approximately 100 μL of blood was collected through cardiac puncture after CO2 euthanasia. Blood samples were subjected to centrifugation at 10,000 rpm for 10 minutes. […] The quantity of ethanol consumed was then calculated as grams per kilogram of the mouse's body weight. […]"}, "[2]": {"system": "gene expression in the amygdala", "assay": "Bulk RNA-seq of amygdala (DESeq2, IPA)", "protocol": "Total RNA was isolated from amygdala samples using the Direct-zol RNA Microprep Kit (Zymoresearch, CA, U.S.A). Quantification of total RNA and assessment of its purity ratios were performed using the NanoDrop 2000 spectrophotometer (Thermo Fisher Scientific, MA, U.S.A, RRID:SCR_018042).\nTotal RNA libraries were prepared for transcriptome sequencing using the Zymo-Seq RiboFree Stranded Total RNA library preparation kit (Zymo Research, CA, U.S.A) following the manufacturer's instructions. Further, rRNAs were depleted as part of the sample preparation process. Libraries were validated for length and adapter dimer removal using the Agilent TapeStation 4200 D1000 High Sensitivity assay (Agilent Technologies, CA, U.S.A, RRID:SCR_019398). Subsequent quantification and normalization were carried out using the dsDNA High Sensitivity Assay for Qubit 3.0 (Life Technologies, CA, U.S.A, RRID:SCR_020311). Sample libraries were then prepared for Illumina sequencing following the manufacturer's protocol (Illumina, CA, U.S.A). All the individual samples were consolidated into a single sequencing pool, with proportions targeting 30M reads/sample, and sequenced on the Illumina NovaSeq 6000 platform (Illumina, CA, U.S.A, RRID:SCR_016387).\nRaw reads were subjected to adaptor removal and quality control including filtering of low-quality reads. Filtered reads were mapped to the mouse reference genome using STAR (Spliced Transcripts Alignment to a Reference, RRID:SCR_004463). Gene expression level was estimated by transcripts per million of transcript sequences. Principal component analysis (PCA) was performed to visualize overall gene expression differences between compared groups in several major principal components. The analysis of differential gene expression (DEG) was performed using the DESeq2 (RRID:SCR_015687) package for RNA-Seq data. […] The Benjamini-Hochberg procedure, also referred to as the false discovery rate (FDR) method, was applied to correct p-values for multiple testing. We utilized Ingenuity Pathway Analysis (IPA, RRID:SCR_008653) to predict pathways associated with differentially expressed genes and employed Gene Set Enrichment Analysis (GSEA, RRID:SCR_003199) to visualize the outcomes in a heatmap. Right tailed Fisher's exact test was performed in the IPA for identifying significant canonical pathways.\nTo gain a molecular understanding of the effects of sodium valerate supplementation on brain function, bulk RNA sequencing (RNA-seq) analysis was performed on amygdala tissue of mice that underwent the DID paradigm after sodium valerate or NaCl (n=7 mice/group) supplementation. […] DESeq2 identified a total of 301 DEG at the adjusted p value <0.25, 126 genes at the adjusted p value <0.10, and 75 genes at the adjusted p value <0.05. […] Among these genes, the top five protein coding genes with the highest expression in sodium valerate-supplemented mice are Kcna10 (potassium voltage-gated channel, shaker-related subfamily, member 10), Pln (phospholamban), H60C (histocompatibility antigen 60c), Idi1 (isopentenyl-diphosphate delta isomerase, pseudogene 3) and Snord34 (small nucleolar RNA, C/D box 34). […] PTGS2 is a prostanoids producer that responds to inflammation. Its downregulation in the sodium valerate supplemented group (log2Fold change: −0.65; adjusted p=0.0002) indicates an anti-inflammatory effect of valerate. […] As SCFAs may function in the brain through G protein-coupled receptors (GPCRs), gene expression levels of 85 GPRs were examined in the RNAseq data. […] IPA was performed to identify changes to the molecular signaling pathways and to comparatively assess the sodium valerate effects in the amygdala. […]"}, "[3]": {"system": "male mice (C57BL/6J)", "assay": "Six-week repeated DID protocol", "protocol": "In this study, the impact of sodium valerate treatment on ethanol intake and blood ethanol concentration (BEC) was assessed using a six-week Drinking in the Dark (DID) protocol in male mice (C57BL/6J). All mice (n=30) were single-housed and had ad libitum access to food and their respective drinking water. Water bottles were removed 30 minutes prior to and throughout each DID session. During the two-week baseline period, all mice underwent a standardized DID paradigm consisting of a 4-day cycle each week: 2-hour access to 20% ethanol on days 1-3, followed by a 4-hour session on day 4. Starting in week three, mice were randomly assigned to one of three groups (10 mice per group): (1) Valerate-i.p., which received intraperitoneal injections of sodium valerate (200 mg/kg body weight) 30 minutes before each DID session; (2) Valerate-drinking water, which received 200 mM sodium valerate in drinking water for 30 minutes before to each DID session; and (3) Control, which received no valerate treatment. Ethanol consumption was evaluated on day 4 of each week (Wecks 1-6), and BEC was measured on day 4 of weeks 2, 4, and 6."}}, "note": "“Also recorded” adds a separate entry of the source.", "data": [{"molecule": "CCCCC(=O)[O-].[Na+]", "note": "[sodium valerate]", "values": [{"measurement": "alcohol intake, 100 mM", "setting": "[1]; 100 mM in drinking water 30 min before alcohol exposure", "value": "significantly decreased; also recorded: reduce drinking significantly"}, {"measurement": "alcohol intake, 200 mM", "setting": "[1]; 200 mM in drinking water 30 min before alcohol exposure", "value": "significantly decreased; also recorded: reduce drinking significantly"}, {"measurement": "MAPKs at the RNA level", "setting": "[2]", "value": "downregulated"}, {"measurement": "six mitochondrial genes encoding subunits of NADH dehydrogenase (Complex I)", "setting": "[2]", "value": "consistently upregulated"}, {"measurement": "downregulated genes among the 75 significant DEG", "setting": "[2]; adjusted p <0.05", "value": 28}, {"measurement": "upregulated genes among the 75 significant DEG", "setting": "[2]; adjusted p <0.05", "value": 47}, {"measurement": "PTGS2 expression, log2Fold change", "setting": "[2]; adjusted p=0.0002", "value": "−0.65"}, {"measurement": "GPR158 expression, log2Fold change", "setting": "[2]; unadjusted p<0.01", "value": "−0.26"}, {"measurement": "Gpr56 expression, log2Fold change", "setting": "[2]; unadjusted p<0.01", "value": 0.28}, {"measurement": "ethanol consumption week 5, Valerate-drinking water", "setting": "[3]; 200 mM in drinking water for 30 min before each DID session from week 3, n=10, p<0.05 vs control", "value": "significantly reduced"}, {"measurement": "BEC week 6, Valerate-drinking water", "setting": "[3]; 200 mM in drinking water for 30 min before each DID session, p<0.01 vs control", "value": "significant reductions"}, {"measurement": "ethanol consumption week 5, Valerate-i.p.", "setting": "[3]; 200 mg/kg i.p. 30 min before each DID session from week 3, n=10, p<0.01 vs control", "value": "significantly reduced"}, {"measurement": "BEC week 6, Valerate-i.p.", "setting": "[3]; 200 mg/kg i.p. 30 min before each DID session, p<0.01 vs control", "value": "significant reductions"}, {"measurement": "ethanol consumption week 6, Valerate-i.p.", "setting": "[3]; 200 mg/kg i.p. 30 min before each DID session, p<0.1 vs control", "value": "trend toward reduced ethanol consumption"}, {"measurement": "effects during the initial weeks of treatment", "setting": "[3]; both valerate groups", "value": "no significant effects"}]}]}
